Measured values published in US12577234B2, “Antagonists of the muscarinic acetylcholine receptor M4” (Vanderbilt University, priority 2017, dated 2026).

Target: T1, human mAChR M4 (Homo sapiens, UniProt P08173)
T1 construct: expressed in transfected cells; host or cells: CHO-K1 (ATCC), stably co-expressing chimeric G protein Gqi5
T1 sequence (P08173 1-479): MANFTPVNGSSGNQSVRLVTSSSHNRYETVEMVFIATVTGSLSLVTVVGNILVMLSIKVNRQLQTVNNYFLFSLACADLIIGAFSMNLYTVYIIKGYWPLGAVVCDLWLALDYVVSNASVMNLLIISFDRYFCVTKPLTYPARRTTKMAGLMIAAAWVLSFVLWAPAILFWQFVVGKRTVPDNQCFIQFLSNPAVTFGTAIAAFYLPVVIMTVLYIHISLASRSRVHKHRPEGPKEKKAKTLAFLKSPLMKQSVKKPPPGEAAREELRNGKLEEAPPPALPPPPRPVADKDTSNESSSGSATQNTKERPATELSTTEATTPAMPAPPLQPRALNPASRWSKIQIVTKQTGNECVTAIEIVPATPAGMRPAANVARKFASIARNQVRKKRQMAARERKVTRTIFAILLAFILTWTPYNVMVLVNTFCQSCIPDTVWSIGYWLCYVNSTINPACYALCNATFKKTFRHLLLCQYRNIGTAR
Test: mAChR M4 cell-based functional assay (calcium mobilization, EC80 acetylcholine), human M4
Conditions: for Emin: human M4, % ACh maximum at 30 μM
Description: Human or rat M4 cDNA, along with the chimeric G protein Gqi5, were transfected into Chinese hamster ovary (CHO-K1) cells purchased from the American Type Culture Collection using Lipofectamine2000. M4/Gqi5/CHO cells were grown in Ham's F-12 medium containing 10% heat-inactivated fetal bovine serum (FBS), 20 mM HEPES, 500 μg/mL G418 sulfate, and 200 μg/mL Hygromycin B.
For high throughput measurement of agonist-evoked increases in intracellular calcium, CHO-K1 cells stably expressing muscarinic receptors were plated in growth medium lacking G418 and hygromycin at 15,000 cells/20 μL/well in Greiner 384-well black-walled, tissue culture (TC)-treated, clear-bottom plates (VWR). Cells were incubated overnight at 37° C. and 5% CO2. […] Compound master plates were formatted in a 10 point concentration-response curve (CRC) format (1:3 dilutions) in 100% DMSO with a starting concentration of 10 or 1 mM using a BRAVO liquid handler (Agilent). Test compound CRCs were then transferred to daughter plates (240 nL) using the Echo acoustic plate reformatter (Labcyte, Sunnyvale, CA) and then diluted into assay buffer (40 μL) to a 2× stock using a Thermo Fisher Combi (Thermo Fisher Scientific, Waltham, MA).
Calcium flux was measured using the Functional Drug Screening System (FDSS) 6000 or 7000 (Hamamatsu Corporation, Tokyo, Japan) as an increase in the fluorescent static ratio. Compounds were applied to cells (20 μL, 2×) using the automated system of the FDSS at 2 seconds into the protocol and the data were collected at 1 Hz. […] Agonist activity was analyzed as a concentration-dependent increase in calcium mobilization upon compound addition. Positive allosteric modulator activity was analyzed as a concentration-dependent increase in the EC20 acetylcholine response. Antagonist activity was analyzed as a concentration-dependent decrease in the EC80 acetylcholine response; for the purposes of the tables herein, an IC50 (inhibitory concentration 50) was calculated as a concentration-dependent decrease of the response elicited by an EC80 concentration of acetylcholine. Concentration-response curves were generated using a four-parameter logistical equation in XLFit curve fitting software (IDBS, Bridgewater, NJ) for Excel (Microsoft, Redmond, WA) or Prism (GraphPad Software, Inc., San Diego, CA) or the Dotmatics software platform (Dotmatics, Bishop's Stortford, UK).

[1] = Table 9, M4/Gqi5/CHO-K1 cells, decrease of EC80 acetylcholine response
[2] = Table 10, M4/Gqi5/CHO-K1 cells, decrease of EC80 acetylcholine response

Structure (SMILES)	IC50 [1] [µM]	Emin (Table 9) [%]	Human M4 Emin (Table 10) [%]	IC50 [2] [µM]	IC50 (Table 10, μM) [µM]
N#Cc1ccc(F)cc1-c1ccc(N[C@H]2C[C@@H]3CN(CC4CCOCC4)C[C@@H]3C2)nn1 [Compound 213, 2-[6-[[(3aR,5s,6aS)-2-(tetrahydropyran-4-ylmethyl)-3,3a,4,5,6,6a-hexahydro-1H-cyclopenta[c]pyrrol-5-yl]amino]pyridazin-3-yl]-4-fluoro-benzonitrile]	–	–	16	0.0118	–
c1cn2cc(-c3ccc(N[C@H]4C[C@@H]5CN(CC6CCOCC6)C[C@@H]5C4)nn3)ccc2n1 [Compound 183, (3aR,5s,6aS)-N-(6-imidazo[1,2-a]pyridin-6-ylpyridazin-3-yl)-2-(tetrahydropyran-4-ylmethyl)-3,3a,4,5,6,6a-hexahydro-1H-cyclopenta[c]pyrrol-5-amine]	–	–	7	0.00107	–
Fc1ccc(Oc2ccc(N[C@H]3C[C@@H]4CN(CC5CCOCC5)C[C@@H]4C3)nn2)cc1 [Compound 225, (3aR,5s,6aS)-N-[6-(4-fluorophenoxy)pyridazin-3-yl]-2-(tetrahydropyran-4-ylmethyl)-3,3a,4,5,6,6a-hexahydro-1H-cyclopenta[c]pyrrol-5-amine]	–	–	5	0.0196	–
COc1ccc(F)cc1-c1ccc(N[C@H]2C[C@@H]3CN(CC4CCOCC4)C[C@@H]3C2)nn1 [Compound 212, (3aR,5s,6aS)-N-[6-(5-fluoro-2-methoxy-phenyl)pyridazin-3-yl]-2-(tetrahydropyran-4-ylmethyl)-3,3a,4,5,6,6a-hexahydro-1H-cyclopenta[c]pyrrol-5-amine]	–	–	5	0.000486	–
FC1(F)CCCN(c2ccc(N[C@H]3C[C@@H]4CN(CC5CCOCC5)C[C@@H]4C3)nn2)C1 [Compound 196, (3aR,5s,6aS)-N-[6-(3,3-difluoro-1-piperidyl)pyridazin-3-yl]-2-(tetrahydropyran-4-ylmethyl)-3,3a,4,5,6,6a-hexahydro-1H-cyclopenta[c]pyrrol-5-amine]	–	–	4	0.00209	–
CN(C)C(=O)c1ccc(-c2ccc(N[C@H]3C[C@@H]4CN(CC5CCOCC5)C[C@@H]4C3)nn2)cc1 [Compound 207, 4-[6-[[(3aR,5s,6aS)-2-(tetrahydropyran-4-ylmethyl)-3,3a,4,5,6,6a-hexahydro-1H-cyclopenta[c]pyrrol-5-yl]amino]pyridazin-3-yl]-N,N-dimethyl-benzamide]	–	–	16	0.0448	–
c1cc(-c2ccc(N[C@H]3C[C@@H]4CN(CC5CCOCC5)C[C@@H]4C3)nn2)c[nH]1 [Compound 229, (3aR,5s,6aS)-N-[6-(1H-pyrrol-3-yl)pyridazin-3-yl]-2-(tetrahydropyran-4-ylmethyl)-3,3a,4,5,6,6a-hexahydro-1H-cyclopenta[c]pyrrol-5-amine]	–	–	11	0.102	–
Cc1nn(C)cc1-c1ccc(N[C@@H]2C[C@@H]3CN(CC4CC5C=CC4C5)C[C@@H]3C2)c(F)c1F (stereo partly drawn) [Compound 42, (3aR,5r,6aS)-2-(5-bicyclo[2.2.1]hept-2-enylmethyl)-N-[4-(1,3-dimethylpyrazol-4-yl)-2,3-difluoro-phenyl]-3,3a,4,5,6,6a-hexahydro-1H-cyclopenta[c]pyrrol-5-amine]	0.422	4.00	–	–	–

Second part, the compound after the results:

IC50 [1] [µM]	Emin (Table 9) [%]	Human M4 Emin (Table 10) [%]	IC50 [2] [µM]	IC50 (Table 10, μM) [µM]	Structure (SMILES)
0.222	3.07	–	–	–	CC(C)(C)CCN1C[C@H]2C[C@@H](Oc3ccc(-c4cc(F)ccc4Cl)nn3)C[C@H]2C1 [Compound 54, (3aR,5r,6aS)-5-[6-(2-chloro-5-fluoro-phenyl)pyridazin-3-yl]oxy-2-(3,3-dimethylbutyl)-3,3a,4,5,6,6a-hexahydro-1H-cyclopenta[c]pyrrole]
0.0578	4.93	–	–	–	Cc1cnn(C)c1-c1ccc(NCCC2C[C@@H]3CN(Cc4ccccc4F)C[C@@H]3C2)nn1 (stereo partly drawn) [Compound 127, N-[2-[(3aR,6aS)-2-[(2-fluorophenyl)methyl]-3,3a,4,5,6,6a-hexahydro-1H-cyclopenta[c]pyrrol-5-yl]ethyl]-6-(2,4-dimethylpyrazol-3-yl)pyridazin-3-amine]
0.108	3.46	–	–	–	Cc1nn(C)cc1-c1ccc(NCC2C[C@@H]3CN(CC(C)C(C)(C)C)C[C@@H]3C2)nn1 (stereo partly drawn) [Compound 63, N-[[(3aR,6aS)-2-(2,3,3-trimethylbutyl)-3,3a,4,5,6,6a-hexahydro-1H-cyclopenta[c]pyrrol-5-yl]methyl]-6-(1,3-dimethylpyrazol-4-yl)pyridazin-3-amine]
0.0079	3.74	–	–	–	Cc1cnn(C)c1-c1ccc(NC[C@H]2C[C@@H]3CN(CC4CC5C=CC4C5)C[C@@H]3C2)nn1 (stereo partly drawn) [Compound 64, N-[[(3aR,5s,6aS)-2-(5-bicyclo[2.2.1]hept-2-enylmethyl)-3,3a,4,5,6,6a-hexahydro-1H-cyclopenta[c]pyrrol-5-yl]methyl]-6-(2,4-dimethylpyrazol-3-yl)pyridazin-3-amine]
0.002	3.48	–	–	–	Cc1cnn(C)c1-c1ccc(NCCC2C[C@@H]3CN(CCC(C)(C)C)C[C@@H]3C2)nn1 (stereo partly drawn) [Compound 120, 6-(1,4-Dimethyl-1H-pyrazol-5-yl)-N-(2-((3aR,6aS)-2-(3,3-dimethylbutyl)octahydrocyclopenta[c]pyrrol-5-yl)ethyl)pyridazin-3-amine]
0.222	3.93	–	–	–	Cc1cnn(C)c1-c1ccc(OCC2C[C@@H]3CN(CC4CCCCC4)C[C@@H]3C2)nn1 (stereo partly drawn) [Compound 83, (3aR,6aS)-2-(cyclohexylmethyl)-5-[[6-(2,4-dimethylpyrazol-3-yl)pyridazin-3-yl]oxymethyl]-3,3a,4,5,6,6a-hexahydro-1H-cyclopenta[c]pyrrole]
–	–	5	0.000517	–	Fc1cccc(-c2ccc(N[C@H]3C[C@@H]4CN(CC5CCOCC5)C[C@@H]4C3)nn2)c1Cl [Compound 202, (3aR,5s,6aS)-N-[6-(2-chloro-3-fluoro-phenyl)pyridazin-3-yl]-2-(tetrahydropyran-4-ylmethyl)-3,3a,4,5,6,6a-hexahydro-1H-cyclopenta[c]pyrrol-5-amine]
–	–	4	0.239	–	Cc1cnn(C)c1-c1ccc(NC(=O)[C@H]2C[C@@H]3CN(CCC(C)(C)C)C[C@@H]3C2)nn1 [Compound 145, (3aR,5s,6aS)-2-(3,3-dimethylbutyl)-N-[6-(2,4-dimethylpyrazol-3-yl)pyridazin-3-yl]-3,3a,4,5,6,6a-hexahydro-1H-cyclopenta[c]pyrrole-5-carboxamide]
0.004	–	–	–	–	Cc1nn(C)cc1-c1ccc(N[C@H]2C[C@@H]3CN(CCc4ccccc4)C[C@@H]3C2)nn1 [compound 12]
–	–	68	–	> 10	c1ccc(-c2cnc(N[C@H]3C[C@@H]4CN(Cc5ccncc5)C[C@@H]4C3)s2)cc1 [Compound 231, N-[(3aR,5s,6aS)-2-(4-pyridylmethyl)-3,3a,4,5,6,6a-hexahydro-1H-cyclopenta[c]pyrrol-5-yl]-5-phenyl-thiazol-2-amine]
0.0583	4.01	–	–	–	Cc1nn(C)cc1-c1ccc(OCC2C[C@@H]3CN(CCC(C)(C)C)C[C@@H]3C2)nn1 (stereo partly drawn) [Compound 92, (3sR,6aS)-2-(3,3-dimethylbutyl)-5-[[6-(1,3-dimethylpyrazol-4-yl)pyridazin-3-yl]oxymethyl]-3,3a,4,5,6,6a-hexahydro-1H-cyclopenta[c]pyrrole]
0.668	4.24	–	–	–	Fc1ccc(Cl)c(-c2ccc(OCC3C[C@@H]4CN(Cc5ccc6c(c5)OCO6)C[C@@H]4C3)nn2)c1 (stereo partly drawn) [Compound 119, (3aR,6aS)-2-(1,3-benzodioxol-5-ylmethyl)-5-[[6-(2-chloro-5-fluoro-phenyl)pyridazin-3-yl]oxymethyl]-3,3a,4,5,6,6a-hexahydro-1H-cyclopenta[c]pyrrole]
